# Test results reported in ChEMBL document CHEMBL1201862, “PubChem BioAssay data set” (2004).
# Activity calls are given as the source filed them.
# Assays:
# Caspase-3 = molecular target: T1, Caspase-3 (Homo sapiens, UniProt P42574); experiment: inhibition of recombinant caspase-3 activity – biochemical, luminescence, set 2, selectivity assay for SENP protease inhibitor project, SAR follow-up (AID 588599); assay type: functional
# T1 sequence (P42574 whole entry): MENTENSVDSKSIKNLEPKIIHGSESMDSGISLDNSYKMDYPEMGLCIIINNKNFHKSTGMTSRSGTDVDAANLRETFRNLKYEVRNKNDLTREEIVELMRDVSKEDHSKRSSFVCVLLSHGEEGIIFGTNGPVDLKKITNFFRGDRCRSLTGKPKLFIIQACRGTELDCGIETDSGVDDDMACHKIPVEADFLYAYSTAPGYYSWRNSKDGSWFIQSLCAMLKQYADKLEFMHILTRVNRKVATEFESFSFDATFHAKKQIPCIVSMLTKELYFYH
# [1] = cAMP pathway inhibition in counterscreen cell line – TR-FRET cAMP detection, counter-screen for MC4R biased antagonist project, dose response (AID 602305); assay type: functional, cell-based;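 further: U2OS cells stimulated with forskolin near its EC80 as the cAMP inducer; potency is for inhibition of forskolin-stimulated cAMP signaling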
# [2] = disruptors of CAL PDZ reporter peptide binding – biochemical, fluorescence polarization, untagged CAL PDZ, dry powder, dose response (AID 602255); assay type: functional
# [3] = molecular target: T2, Sentrin-specific protease 8 (Homo sapiens, UniProt Q96LD8); assay type: functional
# T2 sequence (Q96LD8 whole entry): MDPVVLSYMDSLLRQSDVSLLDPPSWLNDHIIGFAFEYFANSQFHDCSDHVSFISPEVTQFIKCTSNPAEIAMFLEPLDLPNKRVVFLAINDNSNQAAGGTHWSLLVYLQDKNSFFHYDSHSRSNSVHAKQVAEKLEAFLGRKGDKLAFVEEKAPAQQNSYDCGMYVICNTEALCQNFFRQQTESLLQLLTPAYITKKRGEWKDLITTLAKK
# [4] = molecular target: T3, Histone-lysine N-methyltransferase NSD2 (Homo sapiens, UniProt O96028); assay type: biochemical
# T3 sequence (O96028 whole entry): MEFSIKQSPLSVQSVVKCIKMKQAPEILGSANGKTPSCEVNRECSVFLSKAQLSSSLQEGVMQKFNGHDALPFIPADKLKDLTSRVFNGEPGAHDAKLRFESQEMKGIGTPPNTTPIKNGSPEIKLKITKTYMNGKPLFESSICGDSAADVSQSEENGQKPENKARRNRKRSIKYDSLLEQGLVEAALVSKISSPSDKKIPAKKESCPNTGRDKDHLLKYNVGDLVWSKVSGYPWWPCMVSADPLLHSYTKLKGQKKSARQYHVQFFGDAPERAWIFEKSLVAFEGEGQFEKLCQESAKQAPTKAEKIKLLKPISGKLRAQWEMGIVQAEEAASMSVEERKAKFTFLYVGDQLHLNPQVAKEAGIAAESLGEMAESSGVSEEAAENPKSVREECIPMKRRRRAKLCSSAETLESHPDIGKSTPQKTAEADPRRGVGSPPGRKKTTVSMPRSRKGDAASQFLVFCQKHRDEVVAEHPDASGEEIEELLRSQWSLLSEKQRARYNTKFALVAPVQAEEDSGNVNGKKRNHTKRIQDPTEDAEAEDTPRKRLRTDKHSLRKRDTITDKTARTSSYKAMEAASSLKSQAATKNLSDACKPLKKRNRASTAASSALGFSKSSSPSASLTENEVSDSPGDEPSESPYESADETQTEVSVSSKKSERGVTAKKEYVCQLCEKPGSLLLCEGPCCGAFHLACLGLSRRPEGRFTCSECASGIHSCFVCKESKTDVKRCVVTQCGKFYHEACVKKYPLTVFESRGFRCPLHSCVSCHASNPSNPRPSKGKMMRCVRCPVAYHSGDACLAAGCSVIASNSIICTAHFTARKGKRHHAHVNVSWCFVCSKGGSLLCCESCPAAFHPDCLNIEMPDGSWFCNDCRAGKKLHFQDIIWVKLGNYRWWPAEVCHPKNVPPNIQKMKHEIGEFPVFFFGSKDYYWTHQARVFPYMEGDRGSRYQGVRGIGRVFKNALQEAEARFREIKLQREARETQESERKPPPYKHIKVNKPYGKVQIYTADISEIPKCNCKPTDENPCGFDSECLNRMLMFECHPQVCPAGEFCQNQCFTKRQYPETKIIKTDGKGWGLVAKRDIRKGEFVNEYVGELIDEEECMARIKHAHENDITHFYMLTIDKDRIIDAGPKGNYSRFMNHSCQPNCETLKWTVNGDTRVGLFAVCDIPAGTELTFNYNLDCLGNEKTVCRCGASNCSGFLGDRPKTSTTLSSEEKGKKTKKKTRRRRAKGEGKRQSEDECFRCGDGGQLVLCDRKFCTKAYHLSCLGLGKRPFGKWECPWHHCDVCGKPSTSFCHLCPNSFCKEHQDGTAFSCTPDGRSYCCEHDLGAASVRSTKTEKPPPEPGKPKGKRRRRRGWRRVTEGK
smiles,measurement,setting,value
Oc1ccccc1/C=C/c1noc(-c2ccccc2O)n1,IC50,Caspase-3,> 99 µM (inactive)
Cc1nn(-c2ccccc2)c(Cl)c1CN(C(=O)CCl)c1ccc(Cl)cc1,IC50,[1],> 64.6 µM (inactive)
O=C(O)CSc1cc(NS(=O)(=O)c2ccc(Cl)cc2)c2ccccc2c1O,AC50,[2],56.1 µM (active)
COc1ccccc1N1C(=O)Cc2ccccc2C1=O,IC50,[3],> 100 µM (inactive)
Cc1cccc(N=Nc2ccc(N(C)C)cc2)c1,AC50,[4],14.2 µM (active)
